Experimental data as given in patent US20250235415A1, “MODULATION OF HUMAN BREAST MILK COMPOSITION” (LUNDQUIST INSTITUTE FOR BIOMEDICAL INNOVATION AT …, priority 2022, published 2025).
“Also recorded” adds a separate entry of the source. Counter-ions that a name gives are not always drawn. Like-named read-outs stand apart in the source and are kept apart here. One block for each molecule: values may come before it.

Tests used:
[1] = test system: mammary epithelial cells (MECs); experiment: Cell permeability: FITC and FITC-dextran flux from basolateral to apical compartment; type: cell-based, mouse
Protocol: Cell Permeability: To assess whether mammary epithelial permeability was altered by the treatments, we measured the unidirectional flux of fluorescein isothiocyanate (FITC, molecular weight 376) and FITC-labeled dextran 3000 (FITC-dex) from the basolateral to the apical compartments. MECs were prepared as stated above and treated with palmitate and orlistat as described above. After 2 days, FITC and FITC-dex (0.5 mg/mL) were added to the basolateral chamber, and the cells were incubated for 1 h. Thereafter, the basolateral and apical media were aspirated separately, and fluorescence intensity was measured at 490/520 nm excitation/emission maxima. The permeability of the cells is expressed as percent of flux into the apical chamber/total FITC administered into the basolateral chamber.

[2] = test system: mammary epithelial cells (MECs); experiment: 3-D mouse mammary epithelial cell (MEC) primary culture: milk and lipid synthesis and secretion; type: cell-based; conditions: for palmitate-induced MEC "milk" triglyceride concentration: orlistat 100 μmol/L together with palmitate 100 μmol/L; for palmitate-induced MEC "milk" triglyceride concentration / MEC "milk" β-casein protein expression / MEC "milk" triglyceride secretion / concentration: 48 h; for MEC "milk" β-casein protein expression: palmitate 50, 100 μmol/L; for MEC "milk" β-casein protein expression / MEC "milk" triglyceride secretion / concentration: (sodium salt); for MEC "milk" triglyceride secretion / concentration: palmitate 50, 100 μmol/L in basolateral chamber, vs untreated MECs
Protocol: The growth medium consisted of RPMI-1640 supplemented with 10% FBS, 10 μg/mL of insulin, 10 ng/ml of EGF, 100 U/mL of penicillin, and 100 μg/mL of streptomycin. The lactogenic medium consisted of growth medium plus 0.5 U/mL of prolactin and 1 μM dexamethasone. The palmitate-albumin conjugate stock solution contained a palmitate solution (2 mM/L in 50% ethanol) and FA-free BSA (2%) and was diluted in lactation medium to provide 50 and 100 μmol/L palmitate concentrations. Orlistat was dissolved in ethanol.
3-D Cell Culture Model: This example recreated the milk production pathway in mammary epithelial cell (MEC) primary cultures. The method uses cell culture inserts to maintain the cell polarity of MECs, which secrete milk components into the apical (upper) compartment from nutrient sources in the basolateral (lower) compartment (FIG. 1). Briefly, the mice (N=6) were euthanized, and the 4th abdominal mammary glands from both sides were collected in PBS buffer for the isolation of MECs. The mammary glands were minced and incubated in RPMI-1640 medium containing collagenase III (1.5 mg/mL) for 2 h at 37° C. with gentle shaking, followed by centrifugation (600×g for 1 min). The pellet was re-suspended in RPMI-1640 with 0.2% trypsin for 5 min at room temperature. The fragments of the mammary epithelium were dissociated by gentle pipetting with a Pasteur pipette and centrifuged (600×g for 1 min), and the pellet was re-suspended in 60% FBS (fetal bovine serum) followed by centrifugation (10×g for 1 min). The trypsin treatment and centrifugation with FBS were repeated for the isolation of mammary epithelial fragments without contaminating cells, such as fibroblasts, adipocytes, and myoepithelial cells. The epithelial fragments (0.1 mg) were subsequently seeded in 24-well cell culture plates with inserts to separate the basolateral chamber containing the lactogenic medium (nutrients) and the apical chamber containing the secreted MEC “milk”. The cells were cultured for 6 days at 37° C. in growth medium placed in the basolateral chamber. To induce lactogenesis, MECs were cultured in lactogenic medium placed in the basolateral and apical chambers for 2 days at 37° C. To induce a high milk production ability, MECs were cultured at 39° C. with the lactogenic medium in the basolateral chamber and with RMPI-1640 in the apical chamber (FIG. 1).
Treatments: Palmitate (50, 100 μmol/L) or the lipase inhibitor orlistat (100 μmol/L) together with palmitate (100 μmol/L) were added to the lactogenic medium within the basolateral chamber, and RPMI-1640 was maintained in the apical chamber. After 48 h, MECs and apical medium were collected separately for analysis, as described below.
Sample Analysis: Henceforth, we refer to cellular MECs as “MECs” and to apical medium as MEC “milk”. MECs were fixed for immunostaining or stored at −80° C. for protein and mRNA expression studies. MEC “milk” was frozen at −80° C. and analyzed for triglyceride concentration and protein and mRNA expression.
Western Blot: The cells were harvested and dissolved in RIPA solution with a protease inhibitor cocktail and sonicated, and the cell lysates were processed for the analysis of protein concentration by the […] Protein Assay Kit. For the detection of pSTAT5, the protein phosphatase inhibitor NaF (50 mM) was added to all buffers. MEC protein expression of β-casein (25 kDa), FAS (270 KDa), SREBP1 (68 KDa), and pSTAT5 (92 KDa) was analyzed.
MEC “milk” was similarly analyzed for protein expression of β-casein.
RT-PCR: The mRNA abundance of the target genes (lipoprotein lipase, LPL; FAS) and the reference gene (18S) in MEC and MEC “milk” was determined by RT-PCR. Briefly, RNA was extracted following the manufacturer's instructions, using the RNeasy Mini Kit (Qiagen, Valencia, CA, USA). Briefly, a guanidine-thiocyanate-containing lysis buffer and ethanol were added to the samples to promote the selective binding of RNA to the RNeasy membrane. […]

[3] = humans; cited from earlier work
[4] = test system: in vitro cultures; experiment: Cell viability of in vitro cultures with orlistat; type: cell-based; conditions: orlistat 250 μM, orlistat-to-palmitate ratio 1:1
[5] = test system: infant gut microbiota; experiment: TIM-2 in vitro proximal colon model inoculated with infant feces; design: species or system human; conditions: high dose LNnT (1000 mg/L) with infant formula
Protocol: Preliminary Data on Effect of HMOs on infant microbiome: These in vitro studies were performed with TIM-2 107-121 inoculated with feces from 3-month old breast-fed infants (pooled microbiota of 5 infants).
Effect of HMO lacto-N-neotetraose (LNnT) on microbiome metabolic activity: We studied the effect of the most abundant HMOs LNnT (200 and 1000 mg/L) on the metabolic activity of the gut microbiota in TIM-2 when exposed to infant formula.
TIM-2 in vitro Colon Model: TIM-2 simulates the colon and consists of four interconnected compartments containing flexible membranes in which peristaltic movements are mimicked. Conditions of healthy human infants are simulated including: body temperature, lumen pH, composition and rate of secretion fluids, delivery of a predigested substrate from the ‘ileum’, mixing and transport of intestinal contents by peristalsis, absorption of water and microbial metabolites through a dialysis system, and presence of a complex, high density, metabolically active and anaerobic microbiota of healthy human infants. The dialysis system prevents accumulation of microbial metabolites, which would otherwise inhibit or kill gut microbiota. The model will be inoculated with a pooled microbiota of healthy human infants (˜2 months) using feces collected (diaper samples) from 10 volunteers and pooled in an anaerobic cabinet to allow for a standardized microbiota. […]

- FITC fluorescence measured in the apical chamber, treated vs non-treated ([1]; after 48 h treatment, 1 h incubation with FITC): comparable
SMILES: CCCCCCCCCCC[C@@H](C[C@@H]1OC(=O)[C@H]1CCCCCC)OC(=O)[C@H](CC(C)C)NC=O [orlistat]
- palmitate-induced MEC "milk" triglyceride concentration [2]: reversed; also recorded: suppressed
- palmitate-induced MEC "milk" triglyceride concentration ([2]; listed as Orlistat): normalized
- systemic absorption [3]: minimal
- cell viability [4]: demonstrated cell viability

SMILES: CC(=O)N[C@H]1[C@H](O[C@H]2[C@@H](O)[C@@H](CO)O[C@@H](O[C@H]3[C@H](O)[C@@H](O)C(O)O[C@@H]3CO)[C@@H]2O)O[C@H](CO)[C@@H](O[C@@H]2O[C@H](CO)[C@H](O)[C@H](O)[C@H]2O)[C@@H]1O (mixture of isomers) [LNnT, lacto-N-neotetraose]
- L-lactate production by gut microbiota [5]: increased

- FITC fluorescence measured in the apical chamber, treated vs non-treated [1]: comparable
SMILES: CCCCCCCCCCCCCCCC(=O)O [palmitate, palmitate (sodium salt)]
- MEC "milk" β-casein protein expression ([2]; apical medium): dose-dependent increase
- MEC "milk" β-casein protein expression ([2]; apical medium, listed as palmitic): increases
- MEC "milk" mRNA expression of Fas ([2]; apical medium, palmitate 48 h): increased
- MEC "milk" mRNA expression of Lpl ([2]; apical medium, palmitate 48 h): increased
- MEC mRNA expression of Fas ([2]; cellular MECs, palmitate 48 h): increased
- MEC mRNA expression of Lpl ([2]; cellular MECs, palmitate 48 h): increased
- MEC protein expression of FAS ([2]; cellular MECs, palmitate 48 h): increased
- MEC protein expression of SREBP1 ([2]; cellular MECs, palmitate 48 h): increased
- MEC protein expression of pSTAT5 ([2]; cellular MECs, palmitate 48 h): increased
- MEC protein expression of β-casein ([2]; cellular MECs, palmitate 48 h): increased
- MEC "milk" triglyceride secretion / concentration [2]: dose-dependent increase
- MEC "milk" triglyceride secretion / concentration ([2]; listed as Na-palmitate): doubled
- MEC "milk" triglyceride secretion / concentration ([2]; listed as palmitic): increases
